Reference: patent US20130034613A1, “FORMULATIONS OF PHOSPHITES” (Ceradis B.V., priority 2009, published 2013)

Key:
Type in all cases: in vivo
rose = assay: Phytotoxicity towards rose after spraying (Example 2); conditions: summary of Table 3
Text: The experimental design is a randomized block design with a plot size of 3 plants per plot. The experiment has 4 replications. Plants are sprayed with solution until run-off occurs. The composition and the dose rate of the different treatments are the same as in example 1, except that calcium lignosulfonate was replaced by sodium lignosulfonate (Borresperse NA®, Borregaard LignoTech Ltd, Germany).
Phytotoxicity is observed one week after spraying. Per plant, the percentage leaf area dead or showing phytotoxicity symptoms is estimated.

[1] = test system: grapevine cultivar Merlot; assay: Phytotoxicity towards grapevine after spraying; conditions: summary of Table 4
Text: The experimental design is a randomized block design with a plot size of 3 plants per plot. The experiment has 4 replications. Plants are sprayed with solution until run-off occurs. The composition and the dose rate of the different treatments are the same as in example 1.
Phytotoxicity is observed one week after spraying. Per plant, the percentage leaf area dead or showing phytotoxicity symptoms was estimated.

[2] = test system: garden cress (Lepidium sativum) seedlings; assay: Phytotoxicity towards garden cress seedlings after spraying; conditions: summary of Table 2
Procedure: Two compositions of potassium phosphite are prepared, one with and one without calcium lignosulfonate (Borresperse CA®, Borregaard LignoTech Ltd, Germany). The formulation and the concentration in the spray solution are calculated in such a way that the dosage of phosphite is the same for both compositions (120 mM=14.4 g potassium phosphite/1 spray solution). A control is added in which the adjuvants alone (without lignosulfonate or phosphite) are tested.
Various adjuvants are added to the two compositions: alcohol ethoxylate (commercial product: Genapol EP 2584, Clariant, Germany), di-octyl sulfosuccinate (commercial product Emulsogen SF8, Clariant, Germany), quaternary ammonium surfactant (commercial product Geronol CF/PN-20N, Rhodia, France) and ethoxylated tallow amine (commercial product Ethomeen S25, Akzo Nobel, The Netherlands). All adjuvant products arc added at a concentration of 5 g/l spray solution. For both compositions, a control is added without adjuvant.
Garden cress seedlings are grown in plastic boxes (100 seeds/box) on mineral sand. Boxes were kept at 22° C. One week old seedlings are sprayed with the various spray solutions until run-off of the solutions occurs. Phytotoxicity is observed three days after spraying. The percentage of seedlings dead or showing phytotoxicity symptoms is estimated. […]

Measured: phytotoxicity (in words)

potassium phosphite
phytotoxic: rose | [1] | [2]
